{"source": "patent US20240066015A1", "about": "“TREATMENT OF PAIN ASSOCIATED WITH PARKINSON'S DISEASE” (BIAL-PORTELA & CA., S.A., priority 2021, published 2024)", "origin": "cited, not measured here", "key": {"[1]": {"conditions": "in comparison with placebo, added to levodopa-based therapy"}, "[2]": {"conditions": "oral administration, peripheral metabolism by DDC and COMT"}, "[3]": {"conditions": "hot plate test"}, "[4]": {"conditions": "patients with PD and end-of-dose motor fluctuations"}, "[5]": {"conditions": "transdermal patch, patients with advanced-stage PD; trial not powered for statistical significance"}, "[6]": {"conditions": "BIPARK-II trial and OPTIPARK study"}}, "data": [{"smiles": "C[C@H](NCc1ccc(OCc2cccc(F)c2)cc1)C(N)=O", "note": "[Safinamide]", "values": [{"measurement": "PDQ-39 pain-related items", "setting": "[1]", "result": "significantly improve two out of three"}, {"measurement": "need for pain medication", "setting": "[1]", "result": "significantly reduce"}]}, {"smiles": "N[C@@H](Cc1ccc(O)c(O)c1)C(=O)O", "note": "[levodopa]", "values": [{"measurement": "share of an oral dose that reaches the brain", "setting": "[2]", "result": 1, "unit": "%"}]}, {"smiles": "CC(=O)C(=Cc1cc(O)c(O)c([N+](=O)[O-])c1)C(C)=O", "note": "[nitecapone]", "values": [{"measurement": "mediation of the analgesic effect", "setting": "[3]", "result": "not mediated through the CNS"}]}, {"smiles": "Cc1c(Cl)c(C)[n+]([O-])c(Cl)c1-c1noc(-c2cc(O)c(O)c([N+](=O)[O-])c2)n1", "note": "[opicapone]", "values": [{"measurement": "OFF-time", "setting": "[4]", "result": "efficacious in reducing OFF-time"}, {"measurement": "tolerability", "setting": "[4]", "result": "generally well tolerated"}, {"measurement": "NMSS \"Miscellaneous\" domain effect compared with placebo", "setting": "BIPARK-II trial", "result": "less than for that observed for placebo"}, {"measurement": "NMSS \"Miscellaneous\" domain (includes pain as one aspect)", "setting": "[6]", "result": "positive signal"}, {"measurement": "specific effect on pain", "setting": "[6]", "result": "no specific effect on pain was identifiable"}]}, {"smiles": "CCCN(CCc1cccs1)[C@H]1CCc2c(O)cccc2C1", "note": "[rotigotine]", "values": [{"measurement": "PD-associated chronic pain", "setting": "[5]", "result": "may improve"}]}]}
